Assay results reported in ChEMBL document CHEMBL4308841, “Synthesis, in vitro antiproliferative activity, and kinase inhibitory effects of pyrazole-containing diarylureas and diarylamides” (Eur J Med Chem, 2018).

Tests used:
Assay type in all cases: functional
Hs-578T = assay: Growth inhibition of human Hs578T cells assessed as cell growth at 10 uM incubated for 48 hrs by sulforhodamine B assay relative to control; conditions: read-out: Activity
CCRF-CEM = assay: Growth inhibition of human CCRF-CEM cells assessed as cell growth at 10 uM incubated for 48 hrs by sulforhodamine B assay relative to control; conditions: read-out: Activity
DU-145 = assay: Growth inhibition of human DU145 cells assessed as cell growth at 10 uM incubated for 48 hrs by sulforhodamine B assay relative to control; conditions: DU-145, 48 h, read-out: Activity
OVCAR-4 = assay: Growth inhibition of human OVCAR4 cells assessed as cell growth at 10 uM incubated for 48 hrs by sulforhodamine B assay relative to control; conditions: OVCAR-4, 48 h, read-out: Activity
HCT-116 = assay: Growth inhibition of human HCT116 cells assessed as cell growth at 10 uM incubated for 48 hrs by sulforhodamine B assay relative to control; conditions: HCT-116, 48 h, read-out: Activity
A549 = assay: Growth inhibition of human A549/ATCC cells assessed as cell growth at 10 uM incubated for 48 hrs by sulforhodamine B assay relative to control; conditions: A549, 48 h, read-out: Activity
SK-MEL-28 = assay: Growth inhibition of human SK-MEL-28 cells assessed as cell growth at 10 uM incubated for 48 hrs by sulforhodamine B assay relative to control; conditions: SK-MEL-28, 48 h, read-out: Activity
SK-OV-3 = assay: Growth inhibition of human SKOV3 cells assessed as cell growth at 10 uM incubated for 48 hrs by sulforhodamine B assay relative to control; conditions: SK-OV-3, 48 h, read-out: Activity
COLO 205 = assay: Growth inhibition of human COLO205 cells assessed as cell growth at 10 uM incubated for 48 hrs by sulforhodamine B assay relative to control; conditions: COLO 205, 48 h, read-out: Activity
UACC-62 = assay: Growth inhibition of human UACC62 cells assessed as cell growth at 10 uM incubated for 48 hrs by sulforhodamine B assay relative to control; conditions: UACC-62, 48 h, read-out: Activity
786-0 = assay: Growth inhibition of human 786-0 cells assessed as cell growth at 10 uM incubated for 48 hrs by sulforhodamine B assay relative to control; conditions: 786-0, 48 h, read-out: Activity
SF-268 = assay: Growth inhibition of human SF268 cells assessed as cell growth at 10 uM incubated for 48 hrs by sulforhodamine B assay relative to control; conditions: SF-268, 48 h, read-out: Activity
SNB-75 = assay: Growth inhibition of human SNB75 cells assessed as cell growth at 10 uM incubated for 48 hrs by sulforhodamine B assay relative to control; conditions: SNB-75, 48 h, read-out: Activity
A498 = assay: Growth inhibition of human A498 cells assessed as cell growth at 10 uM incubated for 48 hrs by sulforhodamine B assay relative to control; conditions: A498, 48 h, read-out: Activity
PC-3 = assay: Growth inhibition of human PC3 cells assessed as cell growth at 10 uM incubated for 48 hrs by sulforhodamine B assay relative to control; conditions: PC-3, 48 h, read-out: Activity
HL-60(TB) = assay: Growth inhibition of human HL-60(TB) cells assessed as cell growth at 10 uM incubated for 48 hrs by sulforhodamine B assay relative to control; conditions: HL-60, 48 h, read-out: Activity
ACHN = assay: Growth inhibition of human ACHN cells assessed as cell growth at 10 uM incubated for 48 hrs by sulforhodamine B assay relative to control; conditions: read-out: Activity
CAKI-1 = assay: Growth inhibition of human Caki1 cells assessed as cell growth at 10 uM incubated for 48 hrs by sulforhodamine B assay relative to control; conditions: CAKI-1, 48 h, read-out: Activity
NCI-H460 = assay: Growth inhibition of human NCI-H460 cells assessed as cell growth at 10 uM incubated for 48 hrs by sulforhodamine B assay relative to control; conditions: NCI-H460, 48 h, read-out: Activity
SN12C = assay: Growth inhibition of human SN12C cells assessed as cell growth at 10 uM incubated for 48 hrs by sulforhodamine B assay relative to control; conditions: read-out: Activity
UO-31 = assay: Growth inhibition of human UO31 cells assessed as cell growth at 10 uM incubated for 48 hrs by sulforhodamine B assay relative to control; conditions: UO-31, 48 h, read-out: Activity
OVCAR-5 = assay: Growth inhibition of human OVCAR5 cells assessed as cell growth at 10 uM incubated for 48 hrs by sulforhodamine B assay relative to control; conditions: OVCAR-5, 48 h, read-out: Activity
HCT-15 = assay: Growth inhibition of human HCT15 cells assessed as cell growth at 10 uM incubated for 48 hrs by sulforhodamine B assay relative to control; conditions: HCT-15, 48 h, read-out: Activity
LOX IMVI = assay: Growth inhibition of human LOXIMVI cells assessed as cell growth at 10 uM incubated for 48 hrs by sulforhodamine B assay relative to control; conditions: read-out: Activity
NCI-H226 = assay: Growth inhibition of human NCI-H226 cells assessed as cell growth at 10 uM incubated for 48 hrs by sulforhodamine B assay relative to control; conditions: NCI-H226, 48 h, read-out: Activity
UACC-257 = assay: Growth inhibition of human UACC257 cells assessed as cell growth at 10 uM incubated for 48 hrs by sulforhodamine B assay relative to control; conditions: UACC-257, 48 h, read-out: Activity
MOLT-4 = assay: Growth inhibition of human MOLT4 cells assessed as cell growth at 10 uM incubated for 48 hrs by sulforhodamine B assay relative to control; conditions: MOLT-4, 48 h, read-out: Activity
U-251 = assay: Growth inhibition of human U251 cells assessed as cell growth at 10 uM incubated for 48 hrs by sulforhodamine B assay relative to control; conditions: U-251, 48 h, read-out: Activity
SR = assay: Growth inhibition of human SR cells assessed as cell growth at 10 uM incubated for 48 hrs by sulforhodamine B assay relative to control; conditions: read-out: Activity
T47D = assay: Growth inhibition of human T47D cells assessed as cell growth at 10 uM incubated for 48 hrs by sulforhodamine B assay relative to control; conditions: read-out: Activity
SK-MEL-5 = assay: Growth inhibition of human SK-MEL-5 cells assessed as cell growth at 10 uM incubated for 48 hrs by sulforhodamine B assay relative to control; conditions: SK-MEL-5, 48 h, read-out: Activity
SF-295 = assay: Growth inhibition of human SF295 cells assessed as cell growth at 10 uM incubated for 48 hrs by sulforhodamine B assay relative to control; conditions: SF-295, 48 h, read-out: Activity
MDA-MB-435 = assay: Growth inhibition of human MDA-MB-435 cells assessed as cell growth at 10 uM incubated for 48 hrs by sulforhodamine B assay relative to control; conditions: MDA-MB-435, 48 h, read-out: Activity

SMILES | growth at 10 µM (Hs-578T) | growth at 10 µM (CCRF-CEM) | growth at 10 µM (DU-145) | growth at 10 µM (OVCAR-4) | growth at 10 µM (HCT-116) | growth at 10 µM (A549) | growth at 10 µM (SK-MEL-28) | growth at 10 µM (SK-OV-3) | growth at 10 µM (COLO 205) | growth at 10 µM (UACC-62) | growth at 10 µM (786-0) | growth at 10 µM (SF-268) | growth at 10 µM (SNB-75) | growth at 10 µM (A498) | growth at 10 µM (PC-3) | growth at 10 µM (HL-60(TB)) | growth at 10 µM (ACHN) | growth at 10 µM (CAKI-1) | growth at 10 µM (NCI-H460) | growth at 10 µM (SN12C) | further results
COc1cc(Cl)cc(-c2nn(-c3cccc(NC(=O)c4ccc(N5CCOCC5)c(C(F)(F)F)c4)c3)cc2-c2ccncc2)c1 | 40.7% | 31.7% | 93.3% | 67.9% | 47.8% | 45.5% | 53.2% | 75.7% | 52.7% | 67.8% | 43.1% | 67.3% | 34.9% | 31.4% | 29.1% | 2.73% | 50.1% | 46.7% | 29.3% | 79.8% | growth at 10 µM (UO-31): 40.7%; growth at 10 µM (OVCAR-5): 78.4%; growth at 10 µM (HCT-15): 17.2%; growth at 10 µM (LOX IMVI): 47.3%; growth at 10 µM (NCI-H226): 64.2%; growth at 10 µM (UACC-257): 63.5%; growth at 10 µM (MOLT-4): 38.3%; growth at 10 µM (U-251): 32.3%; growth at 10 µM (SR): 18.4%; growth at 10 µM (T47D): 49.2%; growth at 10 µM (SK-MEL-5): 71.5%; growth at 10 µM (SF-295): 2.6%; growth at 10 µM (MDA-MB-435): 63.4%
COc1cc(Cl)cc(-c2nn(-c3cccc(NC(=O)Nc4cccc(C(F)(F)F)c4)c3)cc2-c2ccncc2)c1 | 23.1% | 3.34% | 15.9% | 3.28% | 5.07% | 8.08% | 14.1% | 14.2% | -31.2% | -11.5% | 13.2% | 27.9% | 12.5% | -6.74% | -9.92% | -7.89% | 5.44% | 16.1% | -6.11% | 13.9% | growth at 10 µM (UO-31): -4.59%; growth at 10 µM (OVCAR-5): 34.1%; growth at 10 µM (HCT-15): 7.83%; growth at 10 µM (LOX IMVI): 4.64%; growth at 10 µM (NCI-H226): 3.94%; growth at 10 µM (UACC-257): -11.7%; growth at 10 µM (MOLT-4): -9.16%; growth at 10 µM (U-251): 4.59%; growth at 10 µM (SR): -13.5%; growth at 10 µM (T47D): -0.45%; growth at 10 µM (SK-MEL-5): 5.3%; growth at 10 µM (SF-295): -7.87%; growth at 10 µM (MDA-MB-435): -20.9%
COc1cc(Cl)cc(-c2nn(-c3cccc(NC(=O)Nc4ccc(Cl)c(Cl)c4)c3)cc2-c2ccncc2)c1 | 28.5% | 5.73% | 12.1% | 13.3% | 9.22% | 11.3% | 23.2% | 14.2% | -70.3% | 4.38% | 19.6% | 25.3% | 16.2% | -9.54% | -5.03% | -5.12% | 9.65% | 7.49% | 3.1% | 15.5% | growth at 10 µM (UO-31): 0.64%; growth at 10 µM (OVCAR-5): 37.8%; growth at 10 µM (HCT-15): 13.9%; growth at 10 µM (LOX IMVI): 9.24%; growth at 10 µM (NCI-H226): 7.27%; growth at 10 µM (UACC-257): -11.4%; growth at 10 µM (MOLT-4): -16.1%; growth at 10 µM (U-251): 3.01%; growth at 10 µM (SR): -18.4%; growth at 10 µM (T47D): 18.6%; growth at 10 µM (SK-MEL-5): 3.51%; growth at 10 µM (SF-295): -2.42%; growth at 10 µM (MDA-MB-435): 0.46%
COc1cc(Cl)cc(-c2nn(-c3cccc(NC(=O)c4cc(C(F)(F)F)cc(C(F)(F)F)c4)c3)cc2-c2ccncc2)c1 | 81.1% | 57.1% | 78.2% | 72.1% | 35.2% | 43.5% | 78.8% | 83.4% | 88.7% | 81.4% | 80.2% | 89.2% | 60.8% | -1.74% | 35.6% | 84.3% | 58.2% | 68.6% | 41% | 69.8% | growth at 10 µM (UO-31): 54.3%; growth at 10 µM (OVCAR-5): 83%; growth at 10 µM (HCT-15): 58.6%; growth at 10 µM (LOX IMVI): 76.1%; growth at 10 µM (NCI-H226): 76%; growth at 10 µM (UACC-257): 79.3%; growth at 10 µM (MOLT-4): 55.3%; growth at 10 µM (U-251): 60.7%; growth at 10 µM (SR): 41%; growth at 10 µM (T47D): 53.4%; growth at 10 µM (SK-MEL-5): 67.3%; growth at 10 µM (SF-295): 42.1%; growth at 10 µM (MDA-MB-435): 80%
